Assay results taken from patent publication US20230242871A1, “GENERATION OF PRIMORDIAL GERM CELLS AND METHODS OF USING THE SAME” (The Board of Trustees of the Leland Stanfor Junior …, priority 2020, published 2023).

Tested on: NANOS3-mCherry hESCs
Assay: PGC differentiation of NANOS3-mCherry hESCs, flow cytometry for NANOS3-mCherry fluorescent reporter expression
Type: cell-based, human
Settings: for efficiency upon SCF/EGF subtraction: SCF/EGF subtraction from D0.5-1.5; for efficiency upon SCF/EGF subtraction / effect of absence of SCF and EGF on PGC differentiation / requirement on the D0.5-D1.5 interval: FIG. 5C; for effect of absence of SCF and EGF on PGC differentiation: absence in the same time window (24 hrs at day 2); for requirement on the D0.5-D1.5 interval: posterior epiblast differentiation into PGCs
Source text: In the NANOS3-mCherry hESC line, a 2A-mCherry fluorescent reporter was inserted immediately downstream of the NANOS3 gene without disrupting its coding sequence (Irie et al., 2014). In the SOX17-GFP hESC line, a GFP fluorescent reporter was inserted immediately after the SOX17 start codon, thus functionally invalidating one SOX17 allele (Wang et al., 2011). In the NANOG-2A-YFP hESC line, Cas9 RNP/AAV6-based genome editing (Martin et al., 2019) was used to insert a 2A-iCaspase9-2A-YFP fluorescent reporter immediately downstream of the NANOG gene without disrupting the NANOG coding sequence.
hPSC differentiation into PGCs. Undifferentiated hPSCs were maintained in mTeSR1 + 1% penicillin/streptomycin and enzymatically passaged (Accutase, 1:8-1:12 split) for differentiation. After overnight recovery in mTeSR1 + Thiazovivin (ROCK inhibitor, 5 µM), the following morning, hPSCs were briefly washed (DMEM/F12) and differentiated into posterior epiblast for 12 hours (100 ng/mL Activin + 3 µM CHIR99021 + 10 µM Y-27632) in aRB27 basal media, which comprised Advanced RPMI 1640 medium supplemented with 1% B27 supplement, 0.1 mM non-essential amino acids (NEAA), 100 U/ml Penicillin + 0.1 mg/ml Streptomycin, and 2 mM L-Glutamine (Kobayashi et al., 2017). Subsequently, […], […], […], 100 ng/mL SCF, 50 ng/mL EGF, 1 µM XAV939, and 10 µM Y-27632 for 24 hours (all in aRB27 basal media). For comparison, published PGC differentiation protocols (Sasaki et al., 2015; Kobayashi et al., 2017) were performed as described previously.
Flow cytometry and fluorescence-activated cell sorting (FACS) for cell-surface marker expression. hPSCs or their differentiated derivatives were dissociated using TrypLE Express (Gibco), were washed off the plate with FACS buffer (PBS + 0.1% BSA fraction V [Gibco] + 1 mM EDTA [Gibco] + 1% penicillin/streptomycin [Gibco]) and were pelleted by centrifugation (5 mins, 4° C.). Subsequently, cell pellets were directly resuspended in FACS buffer containing pre-diluted primary antibodies (listed below), thoroughly triturated to ensure a single cell suspension, and primary antibody staining was conducted for 30 mins on ice. Afterwards, cells were washed with an excess of FACS buffer and pelleted again, and this was conducted one more time. Finally, washed cell pellets were resuspended in FACS buffer containing 1.1 µM DAPI (Biolegend), and were strained through a 35 µm filter. Flow cytometry and sorting was conducted on a BD FACSAria II (Stanford Stem Cell Institute FACS Core).

Molecule	efficiency upon SCF/EGF subtraction (readout D3.5)	effect of absence of SCF and EGF on PGC differentiation	requirement on the D0.5-D1.5 interval	requirement of LIF for the second differentiation stage (FIG. 5E)	efficiency upon addition of LIF (LIF added during D0.5-3.5, readout D3.5, FIG. 5E)	differentiation of posterior epiblast into PGCs (phase II: 3 days in PGC-specifying media after 12 hours WNT agonist (phase I), FIG. 1F)
EGF: epidermal growth factor, UniProt P01133 (NSDSECPLSHDGYCLHDGVCMYIEALDKYACNCVVGYIGERCQYRDLKWWELR; UniProt P01133 971-1023, looked up)	enhance efficiency	superfluous	dispensable	–	–	–
LIF: LIF, commonly used to enhance PGC survival (Peprotech 300-05)	–	–	–	dispensable	does not improve efficiency	–
SCF: stem cell factor, also known as Kit ligand	enhance efficiency	superfluous	dispensable	–	–	–
O=c1[nH]c(-c2ccc(C(F)(F)F)cc2)nc2c1CSCC2 [XAV939, 3,5,7,8-Tetrahydro-2-[4-(trifluoromethyl)phenyl]-4H-thiopyrano[4,3-d]pyrimidin-4-one, reference compound]	–	–	–	–	–	promotes differentiation of posterior epiblast into PGCs
